Experimental data taken from US10537545B2, “Ceramide derivatives as anticancer agents” (Rutgers, The State University of New Jersey, priority 2015, dated 2020).
pIC50: −log10 of the molar value.

Assays:
[1] = tested on: HELA; assay: Cytotoxicity assay, HELA cancer cell line; format: cell-based; details: for CTRL HELA (growth relative to control): control = 1; for Growth HELA: control growth 0.55
Method: (§1) Cytotoxicity Assay. […] Cells were treated with varying concentrations of compounds. The IC50 were measured. […] In order to verify that assumption an LDH (Lactate Dehydrogenase) assay was performed.

[2] = tested on: MCF7; assay: Cytotoxicity assay, MCF7 cancer cell line; format: cell-based, human; details: for CTRL MCF7 (growth relative to control): control = 1; for Growth MCF7: control growth 0.7
Method: as §1

[3] = tested on: HELA; details: reported in Andrianasolo et al., J. Nat. Prod. 2011, read-out: IC50, growth inhibition of HeLa (cervical cancer); cited from earlier work
[4] = tested on: MCF7; details: reported in Andrianasolo et al., J. Nat. Prod. 2011, read-out: IC50, growth inhibition of MCF7 (breast cancer); cited from earlier work
[5] = target: T1, HDAC6 (Homo sapiens, UniProt Q9UBN7); assay: HDAC inhibitor assay, HDAC6; format: biochemical; details: class II B HDAC6; read-out: IC50, inhibition of HDAC6
T1 sequence (Q9UBN7 1-1215): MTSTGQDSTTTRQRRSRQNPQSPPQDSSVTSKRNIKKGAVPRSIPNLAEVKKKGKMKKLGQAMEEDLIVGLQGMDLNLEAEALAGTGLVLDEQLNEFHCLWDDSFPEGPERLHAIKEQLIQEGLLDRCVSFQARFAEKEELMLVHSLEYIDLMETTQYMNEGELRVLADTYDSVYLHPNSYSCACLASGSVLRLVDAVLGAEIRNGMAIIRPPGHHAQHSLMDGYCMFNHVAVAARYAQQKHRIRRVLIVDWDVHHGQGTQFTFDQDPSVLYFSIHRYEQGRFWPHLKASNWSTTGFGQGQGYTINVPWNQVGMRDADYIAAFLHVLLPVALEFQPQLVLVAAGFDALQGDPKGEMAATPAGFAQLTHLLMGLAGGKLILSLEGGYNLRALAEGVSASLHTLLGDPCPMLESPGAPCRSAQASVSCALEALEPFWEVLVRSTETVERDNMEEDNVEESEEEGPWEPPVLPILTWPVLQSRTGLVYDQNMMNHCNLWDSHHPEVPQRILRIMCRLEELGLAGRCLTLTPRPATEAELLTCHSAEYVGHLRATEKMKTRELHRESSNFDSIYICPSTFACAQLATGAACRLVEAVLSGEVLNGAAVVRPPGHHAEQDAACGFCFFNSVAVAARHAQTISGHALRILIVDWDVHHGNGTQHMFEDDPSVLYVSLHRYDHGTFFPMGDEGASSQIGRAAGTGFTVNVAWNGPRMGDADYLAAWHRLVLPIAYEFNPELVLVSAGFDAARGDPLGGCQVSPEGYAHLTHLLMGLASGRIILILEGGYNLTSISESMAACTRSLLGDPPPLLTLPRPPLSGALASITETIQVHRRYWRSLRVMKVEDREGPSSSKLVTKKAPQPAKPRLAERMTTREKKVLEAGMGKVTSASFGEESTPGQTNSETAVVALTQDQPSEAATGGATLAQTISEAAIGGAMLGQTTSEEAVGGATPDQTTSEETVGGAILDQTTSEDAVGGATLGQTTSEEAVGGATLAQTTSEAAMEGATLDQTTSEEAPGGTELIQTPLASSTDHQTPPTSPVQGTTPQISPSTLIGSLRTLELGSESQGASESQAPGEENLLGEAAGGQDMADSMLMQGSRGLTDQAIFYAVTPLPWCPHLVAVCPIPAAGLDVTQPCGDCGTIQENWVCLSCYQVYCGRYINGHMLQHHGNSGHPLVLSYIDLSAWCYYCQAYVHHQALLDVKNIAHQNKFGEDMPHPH
Excerpt: (§2) Compound VIII was subjected to enzymatic inhibition test against the class I (HDAC1, HDAC2, HDAC3 and HDAC8), the class II A (HDAC4, HDAC5, HDAC7 and HDAC9) and the class II B (HDAC6) enzymes. HDAC inhibitors Trichostatin A (TSA) and TMP269 (TMP) were used as reference compounds.

[6] = target: HDAC1 (Homo sapiens, UniProt Q13547); assay: HDAC inhibitor assay, HDAC1; format: biochemical; details: up to 50 or 100 μM
Chain of HDAC1 (Q13547 whole entry, species assumed): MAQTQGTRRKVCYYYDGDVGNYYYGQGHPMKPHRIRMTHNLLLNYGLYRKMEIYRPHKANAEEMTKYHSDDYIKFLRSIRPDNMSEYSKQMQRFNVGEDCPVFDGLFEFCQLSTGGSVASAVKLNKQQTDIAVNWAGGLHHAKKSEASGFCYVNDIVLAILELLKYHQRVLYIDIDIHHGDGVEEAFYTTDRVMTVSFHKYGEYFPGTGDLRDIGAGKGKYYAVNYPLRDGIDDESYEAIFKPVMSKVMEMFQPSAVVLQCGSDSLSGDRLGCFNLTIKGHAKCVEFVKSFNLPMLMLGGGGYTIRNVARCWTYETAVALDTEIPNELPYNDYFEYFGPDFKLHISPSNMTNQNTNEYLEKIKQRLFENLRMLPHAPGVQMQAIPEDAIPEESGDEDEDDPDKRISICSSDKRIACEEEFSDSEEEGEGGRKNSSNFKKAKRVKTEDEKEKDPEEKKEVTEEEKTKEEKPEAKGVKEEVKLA
Excerpt: as §2

[7] = target: HDAC2 (Homo sapiens, UniProt Q92769); assay: HDAC inhibitor assay, HDAC2; format: biochemical; details: up to 50 or 100 μM
Chain of HDAC2 (Q92769 whole entry, species assumed): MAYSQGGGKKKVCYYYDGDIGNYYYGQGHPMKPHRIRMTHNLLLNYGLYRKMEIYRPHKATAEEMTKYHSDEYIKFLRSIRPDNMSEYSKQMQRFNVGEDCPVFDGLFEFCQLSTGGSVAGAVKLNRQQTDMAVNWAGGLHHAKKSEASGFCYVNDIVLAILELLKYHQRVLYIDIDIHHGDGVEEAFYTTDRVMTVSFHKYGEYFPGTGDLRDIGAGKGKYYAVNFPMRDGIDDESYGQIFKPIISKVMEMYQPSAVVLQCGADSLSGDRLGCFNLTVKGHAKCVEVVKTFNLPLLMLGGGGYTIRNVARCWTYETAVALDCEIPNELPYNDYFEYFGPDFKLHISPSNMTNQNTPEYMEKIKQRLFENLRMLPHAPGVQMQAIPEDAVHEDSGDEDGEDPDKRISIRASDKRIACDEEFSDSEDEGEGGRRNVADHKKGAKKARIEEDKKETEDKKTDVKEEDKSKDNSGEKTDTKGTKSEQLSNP
Excerpt: as §2

[8] = target: HDAC3 (Homo sapiens, UniProt O15379); assay: HDAC inhibitor assay, HDAC3; format: biochemical; details: up to 50 or 100 μM
Chain of HDAC3 (O15379 whole entry, species assumed): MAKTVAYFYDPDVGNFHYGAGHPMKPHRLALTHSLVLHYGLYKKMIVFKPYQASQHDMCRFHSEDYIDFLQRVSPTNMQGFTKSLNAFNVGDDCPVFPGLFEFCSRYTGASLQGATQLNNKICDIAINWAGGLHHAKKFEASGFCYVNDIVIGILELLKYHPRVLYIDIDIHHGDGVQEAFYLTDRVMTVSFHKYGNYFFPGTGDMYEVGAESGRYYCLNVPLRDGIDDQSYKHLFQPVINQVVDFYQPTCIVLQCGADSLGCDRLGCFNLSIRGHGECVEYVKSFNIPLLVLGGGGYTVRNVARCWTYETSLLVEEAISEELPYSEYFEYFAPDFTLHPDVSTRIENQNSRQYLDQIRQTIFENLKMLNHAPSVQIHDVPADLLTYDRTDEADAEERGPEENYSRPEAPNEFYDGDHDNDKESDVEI
Chain of HDAC3 (Q9Y618 395-489 partner limits assumed, species assumed): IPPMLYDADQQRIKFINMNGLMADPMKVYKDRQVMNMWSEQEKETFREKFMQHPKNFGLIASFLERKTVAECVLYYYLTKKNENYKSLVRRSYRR
Excerpt: as §2

[9] = target: T2, HDAC8 (Homo sapiens, UniProt Q9BY41); assay: HDAC inhibitor assay, HDAC8; format: biochemical; details: up to 50 or 100 μM
T2 sequence (Q9BY41 1-377): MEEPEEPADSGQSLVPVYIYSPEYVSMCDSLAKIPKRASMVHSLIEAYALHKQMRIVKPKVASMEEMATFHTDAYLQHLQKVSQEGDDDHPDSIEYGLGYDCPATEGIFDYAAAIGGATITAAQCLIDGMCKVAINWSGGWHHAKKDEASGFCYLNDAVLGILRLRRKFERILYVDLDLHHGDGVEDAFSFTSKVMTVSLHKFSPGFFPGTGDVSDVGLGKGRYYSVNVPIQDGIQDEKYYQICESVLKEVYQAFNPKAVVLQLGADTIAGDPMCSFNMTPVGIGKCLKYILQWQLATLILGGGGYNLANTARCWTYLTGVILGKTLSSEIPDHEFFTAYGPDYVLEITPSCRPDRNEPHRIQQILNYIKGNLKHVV
Excerpt: as §2

[10] = target: HDAC4 (Homo sapiens, UniProt P56524); assay: HDAC inhibitor assay, HDAC4; format: biochemical; details: up to 50 or 100 μM
Chain of HDAC4 (P56524 whole entry, species assumed): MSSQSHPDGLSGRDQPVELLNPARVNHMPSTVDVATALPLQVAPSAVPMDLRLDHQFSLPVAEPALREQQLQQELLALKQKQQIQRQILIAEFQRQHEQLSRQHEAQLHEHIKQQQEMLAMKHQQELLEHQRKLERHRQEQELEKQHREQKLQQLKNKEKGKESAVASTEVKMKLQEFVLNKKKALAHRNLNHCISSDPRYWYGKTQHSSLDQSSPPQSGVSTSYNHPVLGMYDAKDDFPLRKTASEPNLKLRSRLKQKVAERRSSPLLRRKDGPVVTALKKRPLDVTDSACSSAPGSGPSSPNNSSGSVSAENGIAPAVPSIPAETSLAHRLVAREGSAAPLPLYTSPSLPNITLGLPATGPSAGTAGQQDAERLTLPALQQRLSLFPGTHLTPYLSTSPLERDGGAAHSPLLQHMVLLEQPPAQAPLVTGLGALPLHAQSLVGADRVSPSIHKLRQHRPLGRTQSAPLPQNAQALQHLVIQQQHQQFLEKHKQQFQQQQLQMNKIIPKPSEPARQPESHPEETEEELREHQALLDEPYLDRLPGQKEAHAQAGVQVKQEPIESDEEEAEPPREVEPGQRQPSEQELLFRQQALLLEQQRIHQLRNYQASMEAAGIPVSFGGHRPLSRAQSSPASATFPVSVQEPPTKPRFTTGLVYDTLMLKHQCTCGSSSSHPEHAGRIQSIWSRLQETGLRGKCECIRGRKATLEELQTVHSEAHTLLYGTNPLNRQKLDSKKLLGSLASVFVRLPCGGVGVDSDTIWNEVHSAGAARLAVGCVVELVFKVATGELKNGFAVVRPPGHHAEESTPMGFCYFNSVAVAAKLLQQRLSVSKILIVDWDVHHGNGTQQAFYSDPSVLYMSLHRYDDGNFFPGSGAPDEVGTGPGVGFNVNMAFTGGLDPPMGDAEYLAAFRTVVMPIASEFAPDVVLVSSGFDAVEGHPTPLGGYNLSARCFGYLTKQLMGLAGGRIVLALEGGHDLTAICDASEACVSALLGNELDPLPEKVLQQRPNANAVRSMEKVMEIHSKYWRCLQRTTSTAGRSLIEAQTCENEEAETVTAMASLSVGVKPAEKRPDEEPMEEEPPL
Excerpt: as §2

[11] = target: HDAC5 (Homo sapiens, UniProt Q9UQL6); assay: HDAC inhibitor assay, HDAC5; format: biochemical; details: up to 50 or 100 μM
Chain of HDAC5 (Q9UQL6 whole entry, species assumed): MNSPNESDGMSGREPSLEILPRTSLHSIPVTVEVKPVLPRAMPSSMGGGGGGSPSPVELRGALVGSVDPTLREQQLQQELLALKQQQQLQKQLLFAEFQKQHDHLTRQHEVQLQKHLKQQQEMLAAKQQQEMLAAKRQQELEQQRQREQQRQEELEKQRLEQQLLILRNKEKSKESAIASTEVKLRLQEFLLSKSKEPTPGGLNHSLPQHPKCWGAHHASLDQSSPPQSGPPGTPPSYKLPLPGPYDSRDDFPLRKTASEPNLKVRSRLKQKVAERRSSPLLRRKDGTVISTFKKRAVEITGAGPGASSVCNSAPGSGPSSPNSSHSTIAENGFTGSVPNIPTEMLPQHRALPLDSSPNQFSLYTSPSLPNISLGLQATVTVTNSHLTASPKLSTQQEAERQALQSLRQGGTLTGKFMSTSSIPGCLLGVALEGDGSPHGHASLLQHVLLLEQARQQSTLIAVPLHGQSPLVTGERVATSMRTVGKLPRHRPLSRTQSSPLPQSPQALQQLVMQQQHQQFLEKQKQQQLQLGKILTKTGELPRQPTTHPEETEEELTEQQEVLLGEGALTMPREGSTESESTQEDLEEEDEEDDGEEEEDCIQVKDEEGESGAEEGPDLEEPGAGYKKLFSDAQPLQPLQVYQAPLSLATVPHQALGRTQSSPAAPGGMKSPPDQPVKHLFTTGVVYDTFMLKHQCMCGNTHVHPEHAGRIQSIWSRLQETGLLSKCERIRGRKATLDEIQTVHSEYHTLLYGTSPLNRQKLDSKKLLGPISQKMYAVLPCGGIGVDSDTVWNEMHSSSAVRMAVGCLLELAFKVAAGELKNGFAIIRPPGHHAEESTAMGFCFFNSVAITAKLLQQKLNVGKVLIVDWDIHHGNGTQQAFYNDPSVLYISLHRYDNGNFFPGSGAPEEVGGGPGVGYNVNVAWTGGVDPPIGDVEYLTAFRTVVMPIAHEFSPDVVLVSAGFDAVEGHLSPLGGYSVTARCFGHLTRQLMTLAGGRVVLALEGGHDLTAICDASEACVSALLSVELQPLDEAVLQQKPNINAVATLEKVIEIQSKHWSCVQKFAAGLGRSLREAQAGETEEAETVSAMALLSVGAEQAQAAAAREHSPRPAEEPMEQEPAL
Excerpt: as §2

[12] = target: T3, HDAC7 (Homo sapiens, UniProt Q8WUI4); assay: HDAC inhibitor assay, HDAC7; format: biochemical; details: up to 50 or 100 μM
T3 sequence (Q8WUI4 1-952): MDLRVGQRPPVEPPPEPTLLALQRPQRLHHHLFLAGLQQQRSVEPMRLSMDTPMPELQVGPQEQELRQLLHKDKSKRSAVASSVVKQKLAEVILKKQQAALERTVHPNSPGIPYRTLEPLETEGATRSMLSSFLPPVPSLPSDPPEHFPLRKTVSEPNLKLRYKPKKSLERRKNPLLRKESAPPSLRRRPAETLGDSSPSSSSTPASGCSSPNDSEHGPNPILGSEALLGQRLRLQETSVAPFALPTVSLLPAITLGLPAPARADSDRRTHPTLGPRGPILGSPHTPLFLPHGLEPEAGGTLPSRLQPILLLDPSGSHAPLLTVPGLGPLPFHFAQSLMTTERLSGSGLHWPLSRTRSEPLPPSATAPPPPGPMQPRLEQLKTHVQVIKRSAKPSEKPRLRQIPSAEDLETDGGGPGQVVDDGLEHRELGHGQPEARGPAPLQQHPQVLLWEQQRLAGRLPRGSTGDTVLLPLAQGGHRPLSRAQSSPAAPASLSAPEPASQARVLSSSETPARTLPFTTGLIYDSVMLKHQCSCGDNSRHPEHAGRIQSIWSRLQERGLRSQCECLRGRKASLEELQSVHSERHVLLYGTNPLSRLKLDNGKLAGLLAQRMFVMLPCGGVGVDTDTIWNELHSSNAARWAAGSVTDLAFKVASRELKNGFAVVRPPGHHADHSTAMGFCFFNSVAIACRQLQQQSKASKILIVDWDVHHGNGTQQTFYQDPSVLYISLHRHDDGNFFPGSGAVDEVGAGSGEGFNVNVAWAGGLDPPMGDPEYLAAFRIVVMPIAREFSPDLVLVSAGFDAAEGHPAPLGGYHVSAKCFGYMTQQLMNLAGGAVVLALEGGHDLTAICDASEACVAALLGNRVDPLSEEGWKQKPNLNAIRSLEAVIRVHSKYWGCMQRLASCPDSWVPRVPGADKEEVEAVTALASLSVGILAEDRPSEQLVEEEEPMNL
Excerpt: as §2

[13] = target: HDAC9 (Homo sapiens, UniProt Q9UKV0); assay: HDAC inhibitor assay, HDAC9; format: biochemical; details: up to 50 or 100 μM
Chain of HDAC9 (Q9UKV0 whole entry, species assumed): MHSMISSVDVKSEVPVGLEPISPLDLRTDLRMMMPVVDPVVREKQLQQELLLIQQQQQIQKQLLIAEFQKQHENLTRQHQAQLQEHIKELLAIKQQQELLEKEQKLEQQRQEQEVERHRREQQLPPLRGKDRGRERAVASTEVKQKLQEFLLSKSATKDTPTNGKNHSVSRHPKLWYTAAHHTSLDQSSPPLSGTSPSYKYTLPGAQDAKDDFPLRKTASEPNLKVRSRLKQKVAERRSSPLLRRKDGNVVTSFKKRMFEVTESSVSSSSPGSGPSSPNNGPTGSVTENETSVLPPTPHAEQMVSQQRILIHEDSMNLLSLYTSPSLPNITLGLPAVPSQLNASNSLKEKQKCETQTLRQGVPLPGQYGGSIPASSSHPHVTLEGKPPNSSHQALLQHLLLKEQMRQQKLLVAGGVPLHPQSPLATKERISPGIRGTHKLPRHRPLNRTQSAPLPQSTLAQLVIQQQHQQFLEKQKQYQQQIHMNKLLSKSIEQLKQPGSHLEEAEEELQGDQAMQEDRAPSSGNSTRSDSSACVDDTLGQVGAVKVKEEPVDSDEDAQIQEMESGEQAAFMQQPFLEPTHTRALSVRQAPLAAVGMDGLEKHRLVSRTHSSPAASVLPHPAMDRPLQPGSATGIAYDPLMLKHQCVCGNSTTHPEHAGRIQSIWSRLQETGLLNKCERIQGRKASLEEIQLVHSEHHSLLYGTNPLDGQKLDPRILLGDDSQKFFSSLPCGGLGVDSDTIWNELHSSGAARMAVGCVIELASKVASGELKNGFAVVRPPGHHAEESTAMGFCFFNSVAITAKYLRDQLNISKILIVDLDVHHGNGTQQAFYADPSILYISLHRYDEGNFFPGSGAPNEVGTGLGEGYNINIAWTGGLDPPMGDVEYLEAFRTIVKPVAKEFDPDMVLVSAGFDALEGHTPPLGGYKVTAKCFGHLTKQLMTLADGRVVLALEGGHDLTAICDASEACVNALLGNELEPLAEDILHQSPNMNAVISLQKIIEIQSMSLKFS
Excerpt: as §2

Row | Compound | CTRL HELA (growth relative to control) ([1]; 72 μg*0.01/ml) | Growth HELA ([1]; 72 μg*0.01/ml) | CTRL HELA (growth relative to control) ([1]; 360 μg*0.01/ml) | Growth HELA ([1]; 360 μg*0.01/ml) | CTRL MCF7 (growth relative to control) ([2]; 72 μg*0.01/ml) | Growth MCF7 ([2]; 72 μg*0.01/ml) | CTRL MCF7 (growth relative to control) ([2]; 360 μg*0.01/ml) | Growth MCF7 ([2]; 360 μg*0.01/ml) | pIC50 [3] | pIC50 [4] | pIC50 [5] | Inhibition of HDAC1 [6] | Inhibition of HDAC2 [7] | Inhibition of HDAC3 [8] | Inhibition of HDAC8 [9] | Inhibition of HDAC4 [10] | Inhibition of HDAC5 [11] | Inhibition of HDAC7 [12] | Inhibition of HDAC9 [13]
1 | CCC/C=C\C/C=C\C/C=C\CCCCC(=O)O[C@@H](COC(=O)CCCCCCCCCCCCCCC)[C@H](O)[C@H](CO)NC(=O)CCCCCCCCCCC (relative stereo) [compound 1] | 0.78 | 0.43 | 0.56 | 0.31 | 0.42 | 0.29 | 0.15 | 0.11 | 6.40 | 7.00 |  |  |  |  |  |  |  |  | 
2 | CCC/C=C\C/C=C\CCC(=O)O[C@@H](COC(=O)CCCCCCCCCCCCC)[C@H](O)[C@H](CO)NC(=O)CCCCCCCCCCC [compound 2] |  |  |  |  |  |  |  |  | 6.30 | 6.70 |  |  |  |  |  |  |  |  | 
3 | C=C1CC[C@@H]2O[C@@]2(C)CC[C@H](/C(=C/CC2OC2(C)C)CO)[C@H]1C(=O)OC (stereo partly drawn) [compound VIII] |  |  |  |  |  |  |  |  |  |  | ~4.10 | did not significantly inhibit | did not significantly inhibit | did not significantly inhibit | did not significantly inhibit | did not significantly inhibit | did not significantly inhibit | did not significantly inhibit | did not significantly inhibit
